From patent publication US20210393722A1, “COMPOSITION FOR IMPROVING SKIN BARRIER DAMAGE AND/OR ALLEVIATING SKIN INFLAMMATION, CONTAINING 3,5-DICAFFEOYLQUINIC ACID AS ACTIVE INGREDIENT” (KOREA UNIVERSITY RESEARCH AND BUSINESS FOUNDATION, priority 2018, published 2021)

Experiments:
Format in all cases: cell-based, human
HaCaT cells [1] = test: Immunohistochemical staining of HaCaT cells treated with 3,5-DCQA (Example 8); settings: 1 μM 3,5-DCQA
Description: (§1) HaCaT cells (human keratinocytes) were cultured in Dulbecco's modified Eagle's medium (DMEM) containing 10% fetal bovine serum (FBS) and 1% antibiotic-antimycotic solution at 37° C. in a 5% CO2 incubator. The cell culture medium was replaced with fresh DMEM every 48-72 hours. HaCaT cells within 5-17 passages were plated at a density of 1×10^4 cells per well in an 8-well chamber slide, or at a density of 1×10^6 cells per well in a 6-well culture plate in DMEM containing […] and 1% antibiotic-antimycotic solution. The cells were cultured for 24-48 hours in a 5% CO2 incubator at 37° C. Then, the medium was replaced with DMEM containing 1% fetal bovine serum. Thereafter, the cells were treated for 24 hours with DNCB (5 μM, Sigma-Aldrich, Louis, Mo., USA) or SDS (30 μM, Sigma-Aldrich) along with the AG extract (50 μg) and the PPARδ antagonist GSK0660 (Sigma-Aldrich). In addition, the cells were treated with 1 μM 3,5-dicaffeoylquinic acid (3,5-DCQA). The HaCaT cells were donated by Dr. Sang-Wook Son. All the reagents for cell culture were purchased from Welgene Inc. (Daegu, Korea). The concentrations of all the reagents were final concentrations.
In order to measure the protein expression of keratin, involucrin, β-defensin and TNFα in HaCaT cells treated with 3,5-dicaffeoylquinic acid, immunohistochemical staining was performed after treating with the condition of Example 2.
The protein extracts were electrophoresed on 10% polyacrylamide gel and blotted to a nitrocellulose membrane. The nitrocellulose membrane was bound with primary and secondary antibodies sequentially, and then chemiluminescence was exposed to an X-ray film. The density for bands on the X-ray film was analyzed with the Image J program. The HaCaT cells fixed on a slide chamber were immunohistochemically stained with antibodies for keratin, involucrin, defensin and TNFα. Images were taken at 200× magnification, and the densities for the images were analyzed with the Image J program. The results were expressed as mean±SEM. The values were statistically analyzed by unpaired t-test. All the experiments were repeated three times.

HaCaT cells [2] = test: Western blot of protein expression in HaCaT cells treated with 3,5-DCQA (Example 7); settings: 1 μM 3,5-DCQA
Description: as §1
In order to measure the protein expression of TRPV4, PPARδ, AMPK and SPTLC2 in HaCaT cells treated with 3,5-dicaffeoylquinic acid, western blot was performed after treating with the condition of Example 2.

HaCaT cells [3] = test: Immunohistochemical staining of HaCaT cells treated with antagonists for TRPV4 and AMPK (Example 5); settings: HaCaT treated with antagonist; compared to the control group
Description: To investigate the effect of TRPV4 and AMPK on the expression of biomarkers related to skin barrier constituents, defense and inflammation, the protein expression for keratin, involucrin, β-defensin and TNFα was evaluated by immunohistochemical staining of HaCaT cells treated with antagonists for TRPV4 and AMPK.
(§2) Western blot was conducted for TRPV4, AMPK and PPARδ in HaCaT cells treated with antagonists for TRPV4, PPARδ and AMPK. The HaCaT cells fixed on a slide chamber were immunohistochemically stained with antibodies for keratin, involucrin, defensin and TNFα. Images were taken at 200× magnification, and the densities for the images were analyzed with the Image J program. The protein extracts were electrophoresed on 10% polyacrylamide gel and blotted to a nitrocellulose membrane. The nitrocellulose membrane was bound with primary and secondary antibodies sequentially, and then chemiluminescence was exposed to an X-ray film. The density for bands on the X-ray film was analyzed with the Image J program. The results were expressed as mean±SEM. The values were statistically analyzed by unpaired t-test. All the experiments were repeated three times.

HaCaT cells [4] = test: Western blot for TRPV4, PPARδ and AMPK in HaCaT cells treated with antagonists for TRPV4, PPARδ or AMPK (Example 6); settings: HaCaT treated with antagonist
Description: as §2
To determine the priority of major regulators which are TRPV4, PPARδ and AMPK, the protein expression level of TRPV4, PPARδ and AMPK in HaCaT cells treated with antagonists for TRPV4, PPARδ or AMPK was measured by western blot.

HaCaT cells [5] = test: Immunocytochemistry of keratin, involucrin, β-defensin 1 and TNFα in HaCaT cells treated with DNCB or SDS with AG extract (Example 4); settings: AG extract plus GSK0660
Description: as §1
In order to evaluate the expression of β-defensin 1, a representative β-defensin, together with skin barrier constituents such as keratin and involucrin and the inflammatory cytokine TNFα, immunocytochemistry (ICC) was conducted after treating with the condition of Example 2.
Cells in a chamber slide were fixed with ice-cold methanol for 15 minutes. The fixed cells were treated with a 0.3% hydrogen peroxide (H2O2) solution containing 0.3% normal horse serum for 5 minutes to remove peroxidase activity in the cells. After washing with PBS for 5 minutes, the cells were incubated with diluted normal blocking serum for 20 minutes, followed by treatment with diluted primary antibodies for 1 hour. The primary antibodies for involucrin and TNFα were purchased from Novus (Littleton, Colo. 80120, USA). The primary antibody for β-defensin 1 was purchased from Santa Cruz Biotechnology, Inc. (Dallas, Tex., USA), and the primary antibody for pan-keratin was purchased from Abcam (Cambridge, UK). After washing with PBS, the cells were treated with secondary antibodies for 30 minutes. After washing with PBS, the cells were treated with a premixed Vectastain ABC reagent solution for 30 minutes. […]
The protein extracts were electrophoresed on 10% polyacrylamide gel and blotted to a nitrocellulose membrane. […] The density for bands on the X-ray film was analyzed with the Image J program. […] Images were taken at 200× magnification, and the densities for the images were analyzed with the Image J program. The results were expressed as mean±SEM. The values were statistically analyzed by unpaired t-test. […]

HaCaT cells [6] = test: Western blot of protein expression in HaCaT cells treated with DNCB or SDS with AG extract (Example 3); settings: GSK0660 along with the AG extract
Description: as §1
For evaluation of the protein expression levels of PPARδ, AMPK and SPTLC2 in the HaCaT cells treated with SDS or DNCB together with AG, western blot was conducted after treating with the conditions of Example 2.
The concentration of the proteins in the sample was estimated by the Bradford method. 10 μg of the extracted proteins were loaded onto 10% sodium dodecyl sulfate (SDS)-polyacrylamide gel, and protein blotting on nitrocellulose membrane was performed for 90 minutes. The membrane was blocked overnight with 5% skim milk and washed 3 times with TBS-T for 10 minutes. Primary antibodies were allowed to bind to the membrane at room temperature for 2 hours. […] Images were processed manually with Kodak GBX developer and fixer reagents (Carestream Health, Inc., Rochester, N.Y., USA) and were analyzed using the Image J program. β-Actin was used as a internal control group for normalization of the loaded proteins.

With `O=C(/C=C/c1ccc(O)c(O)c1)O[C@@H]1C[C@](O)(C(=O)O)C[C@@H](OC(=O)/C=C/c2ccc(O)c(O)c2)[C@H]1O` [3,5-DCQA, 3,5-dicaffeoylquinic acid] the “expression of TNFα” value (HaCaT cells [1]) was “decreased”, the “protein expression of involucrin” value (HaCaT cells [1]) was “increased” and the “protein expression of keratin” value (HaCaT cells [1]) was “increased”. The “protein expression of β-defensin 1” value (HaCaT cells [1]) was “increased”, the “protein expression of AMPK” value (HaCaT cells [2]) was “increased” and the “protein expression of PPARδ” value (HaCaT cells [2]) was “increased”. For the same compound, the “protein expression of SPTLC2” value (HaCaT cells [2]) was “increased”.

With `c1cc(-c2cnn3cc(-c4ccc(OCCN5CCCCC5)cc4)cnc23)ccn1` [compound C] the “protein expression of TNFα” value (HaCaT cells [3]) was “increased”, the “protein expression of involucrin” value (HaCaT cells [3]) was “decreased significantly” and the “protein expression of keratin” value (HaCaT cells [3]) was “decreased significantly”. For the same compound, the “protein expression of β-defensin 1” value (HaCaT cells [3]) was “decreased significantly”, the “protein expression level for PPARδ” value (HaCaT cells [4]) was “did not affect” and the “protein expression level for TRPV4” value (HaCaT cells [4]) was “did not affect”. The “protein expression level for p-AMPK” value (HaCaT cells [4]) was “decreased”.

With `COC(=O)c1sccc1S(=O)(=O)Nc1ccc(Nc2ccccc2)cc1OC` [GSK0660] the “protein expression level for PPARδ” value (HaCaT cells [4]) was “lowered”, the “protein expression level for TRPV4” value (HaCaT cells [4]) was “did not change” and the “protein expression level for p-AMPK” value (HaCaT cells [4]) was “lowered”. The “AG extract-increased involucrin protein expression” value (HaCaT cells [5]) was “offset”, the “AG extract-increased keratin protein expression” value (HaCaT cells [5]) was “offset” and the “AG extract-increased β-defensin 1 protein expression” value (HaCaT cells [5]) was “offset”. For the same compound, the “effect of the AG extract on TNFα expression” value (HaCaT cells [5]) was “offset”, the “AG extract-induced increase in the expression of P-AMPK” value (HaCaT cells [6]) was “reduced” and the “AG extract-induced increase in the expression of PPARδ” value (HaCaT cells [6]) was “reduced”. For the same compound, the “AG extract-induced increase in the expression of SPTLC2” value (HaCaT cells [6]) was “reduced”.
